Data published in US20140221346A1, “THERAPEUTIC COMPOUNDS” (Gilead Sciences, Inc., priority 2013, published 2014).

What was measured:
[1] = Test B: Cytotoxicity Assay; type: cell-based; settings: human, uninfected MT-4 cells, same protocol as Test A, CellTiter-Glo
Protocol: (§1) For the antiviral assay, 40 μL of 1× test concentration of 3-fold serially diluted compound in culture medium with 10% FBS was added to each well of a 384-well plate (10 concentrations) in quadruplicate. MT-4 cells were next mixed with HIV-IIIb at an m.o.i of 0.003 for 1 hour, after which time 35 μL of virus/cell mixture (2000 cells) was immediately added to each well containing 40 μL of diluted compound. The plates were then incubated at 37° C. for 5 days. After 5 days of incubation, 25 μl of 2× concentrated CellTiter-Glo™ Reagent (catalog #G7571, Promega Biosciences, Inc., Madison, Wis.) was added to each well containing MT-4 cells. Cell lysis was carried out by incubating at room temperature for 10 min and then chemiluminescence was read.
Compound cytotoxicity and the corresponding CC50 values was determined using the same protocol as described in the antiviral assay (Test A) except that uninfected cells were used.

[2] = tested on: HIV-IIIb; assay: Test A: Antiviral Assay in MT4 Cells; type: cell-based, HIV-1; settings: Human immunodeficiency virus 1, IIIB, MT4, 120 h, read-out: % inhibition at 3 μM
Protocol: as §1

Row | Structure (SMILES) | CC50 at 5 days [1] | inhibition at 3 µM [2]
1 | COCCOCCNc1ncc(-c2ccc(F)c(C(N)=O)c2)c([C@H](Cc2cc(F)cc(F)c2)NC(=O)Cn2nc(C(F)F)c3c2C(F)(F)CCC3(F)F)n1 [Compound 17B, (S)-5-(4-(1-(2-(3-(difluoromethyl)-4,4,7,7-tetrafluoro-4,5,6,7-tetrahydro-1H-indazol-1-yl)acetamido)-2-(3,5-difluorophenyl)ethyl)-2-((2-(2-methoxyethoxy)ethyl)amino)pyrimidin-5-yl)-2-fluorobenzamide] | 48.8 µM | 83%
2 | CN(C)c1ncc(-c2ccc(F)c(C(N)=O)c2)c([C@H](Cc2cc(F)cc(F)c2)NC(=O)Cn2nc(C(F)F)c3c2C(F)(F)CCC3(F)F)n1 [Compound 18B, (S)-5-(4-(1-(2-(3-(difluoromethyl)-4,4,7,7-tetrafluoro-4,5,6,7-tetrahydro-1H-indazol-1-yl)acetamido)-2-(3,5-difluorophenyl)ethyl)-2-(dimethylamino)pyrimidin-5-yl)-2-fluorobenzamide] | 38.9 µM | 16%
3 | NC(=O)c1cc(-c2cnc(N3CCC(=O)CC3)nc2[C@H](Cc2cc(F)cc(F)c2)NC(=O)Cn2nc(C(F)F)c3c2C(F)(F)CCC3(F)F)ccc1F [Compound 19C, (S)-5-(4-(1-(2-(3-(difluoromethyl)-4,4,7,7-tetrafluoro-4,5,6,7-tetrahydro-1H-indazol-1-yl)acetamido)-2-(3,5-difluorophenyl)ethyl)-2-(4-oxopiperidin-1-yl)pyrimidin-5-yl)-2-fluorobenzamide] | > 51.5 µM | 26%
4 | NC(=O)c1cc(-c2cnc(N3CCC(O)CC3)nc2[C@H](Cc2cc(F)cc(F)c2)NC(=O)Cn2nc(C(F)F)c3c2C(F)(F)CCC3(F)F)ccc1F [Compound 21, (S)-5-(4-(1-(2-(3-(difluoromethyl)-4,4,7,7-tetrafluoro-4,5,6,7-tetrahydro-1H-indazol-1-yl)acetamido)-2-(3,5-difluorophenyl)ethyl)-2-(4-hydroxypiperidin-1-yl)pyrimidin-5-yl)-2-fluorobenzamide] | 22.5 µM | 41%
5 | NC(=O)c1cc(-c2cnc(NCCN3CCNC3=O)nc2[C@H](Cc2cc(F)cc(F)c2)NC(=O)Cn2nc(C(F)F)c3c2C(F)(F)CCC3(F)F)ccc1F [Compound 22B, (S)-5-(4-(1-(2-(3-(difluoromethyl)-4,4,7,7-tetrafluoro-4,5,6,7-tetrahydro-1H-indazol-1-yl)acetamido)-2-(3,5-difluorophenyl)ethyl)-2-((2-(2-oxoimidazolidin-1-yl)ethyl)amino)pyrimidin-5-yl)-2-fluorobenzamide] | 34.1 µM | 93%
6 | NC(=O)c1cc(-c2cnc(NCCn3ccnn3)nc2[C@H](Cc2cc(F)cc(F)c2)NC(=O)Cn2nc(C(F)F)c3c2C(F)(F)CCC3(F)F)ccc1F [Compound 23F, (S)-5-(2-((2-(1H-1,2,3-triazol-1-yl)ethyl)amino)-4-(1-(2-(3-(difluoromethyl)-4,4,7,7-tetrafluoro-4,5,6,7-tetrahydro-1H-indazol-1-yl)acetamido)-2-(3,5-difluorophenyl)ethyl)pyrimidin-5-yl)-2-fluorobenzamide] | 32.7 µM | 77%
7 | NC(=O)c1cc(-c2cnc(NCCN3CCCC3=O)nc2[C@H](Cc2cc(F)cc(F)c2)NC(=O)Cn2nc(C(F)F)c3c2C(F)(F)CCC3(F)F)ccc1F [Compound 24, (S)-5-(4-(1-(2-(3-(difluoromethyl)-4,4,7,7-tetrafluoro-4,5,6,7-tetrahydro-1H-indazol-1-yl)acetamido)-2-(3,5-difluorophenyl)ethyl)-2-((2-(2-oxopyrrolidin-1-yl)ethyl)amino)pyrimidin-5-yl)-2-fluorobenzamide] | 37.2 µM | 79%
8 | NC(=O)c1cc(-c2cnc(NC3CCOC3)nc2[C@H](Cc2cc(F)cc(F)c2)NC(=O)Cn2nc(C(F)F)c3c2C(F)(F)CCC3(F)F)ccc1F (stereo partly drawn) [Compound 25, 5-(4-((S)-1-(2-(3-(difluoromethyl)-4,4,7,7-tetrafluoro-4,5,6,7-tetrahydro-1H-indazol-1-yl)acetamido)-2-(3,5-difluorophenyl)ethyl)-2-((tetrahydrofuran-3-yl)amino)pyrimidin-5-yl)-2-fluorobenzamide] | 37.7 µM | 69%
9 | NC(=O)c1cc(-c2cnc(NCCO)nc2[C@H](Cc2cc(F)cc(F)c2)NC(=O)Cn2nc(C(F)F)c3c2C(F)(F)CCC3(F)F)ccc1F [Compound 26, (S)-5-(4-(1-(2-(3-(difluoromethyl)-4,4,7,7-tetrafluoro-4,5,6,7-tetrahydro-1H-indazol-1-yl)acetamido)-2-(3,5-difluorophenyl)ethyl)-2-((2-hydroxyethyl)amino)pyrimidin-5-yl)-2-fluorobenzamide] | 19.9 µM | 86%
10 | NC(=O)c1cc(-c2cnc(NCCN3CCOCC3)nc2[C@H](Cc2cc(F)cc(F)c2)NC(=O)Cn2nc(C(F)F)c3c2C(F)(F)CCC3(F)F)ccc1F [Compound 28, (S)-5-(4-(1-(2-(3-(difluoromethyl)-4,4,7,7-tetrafluoro-4,5,6,7-tetrahydro-1H-indazol-1-yl)acetamido)-2-(3,5-difluorophenyl)ethyl)-2-((2-morpholinoethyl)amino)pyrimidin-5-yl)-2-fluorobenzamide] | 14.1 µM | 81%
11 | O=C(Cn1nc(C(F)F)c2c1C(F)(F)CCC2(F)F)N[C@@H](Cc1cc(F)cc(F)c1)c1nc(-n2cncn2)ncc1-c1ccc2c(c1)C(=O)NC2 [Compound 29D, (S)-2-(3-(difluoromethyl)-4,4,7,7-tetrafluoro-4,5,6,7-tetrahydro-1H-indazol-1-yl)-N-(2-(3,5-difluorophenyl)-1-(5-(3-oxoisoindolin-5-yl)-2-(1H-1,2,4-triazol-1-yl)pyrimidin-4-yl)ethyl)acetamide] | 40 µM | 101%
